Drawing on PubChem BioAssay (NCI), this text covers TGI for twelve compounds.

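96-well plates; 48 h exposure; 5 concentrations. Endpoints by linear interpolation between flanking doses. Not reached: highest tested concentration assigned. The concentration for full growth arrest is given as TGI.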 Bounds are passed on as bounds.

By TGI is commonly meant the concentration at which net growth stops. Read a low TGI as greater sensitivity of the cells.

Among the test systems are NCI-H460 lung; NCI-H23 lung; UO-31 renal; PC-3 prostate; HL-60(TB) leukemia; SNB-19 CNS; HCT-15 colon; MDA-MB-435; TK-10 renal; OVCAR-3 ovarian.
Common to all, as to assay: DTP human tumour cell line panel, 48 h

For `CC(=O)N(C(C)=O)n1c(Cc2ccc(C)cc2)nn(C(C)=O)c1=O`, the concentration for total growth inhibition (TGI) in the test with NCI-H460 lung, in the test with NCI-H23 lung, in the test on UO-31 renal, in the test on PC-3 prostate, in the test on HL-60(TB) leukemia and in the test with SNB-19 CNS was over 100 µM throughout. Besides, the TGI with HCT-15 colon, in the test with MDA-MB-435, in the test with TK-10 renal and in the test with OVCAR-3 ovarian was over 100 µM in each case.

For `Cc1cc(N(CCC#N)CCC#N)ccc1/C=C1\SC(=S)NC1=O`, the TGI with NCI-H460 lung, in the test on NCI-H23 lung, in the test on UO-31 renal, in the test on PC-3 prostate, in the test on HL-60(TB) leukemia and with SNB-19 CNS was over 100 µM in each case. Moreover, the TGI in the test on HCT-15 colon, in the test with MDA-MB-435, with TK-10 renal and in the test on OVCAR-3 ovarian was over 100 µM throughout.

For the compound `CC(C)(C)OC(=O)N1[C@@H]2Cc3ccc(N)cc3[C@@]1(C)c1ccccc12`, the TGI in the test on NCI-H460 lung is 48.8 µM; with NCI-H23 lung, 60.4 µM; in the test on UO-31 renal, over 100 µM; with PC-3 prostate it was over 100 µM; in the test with HL-60(TB) leukemia it was 44.9 µM; with SNB-19 CNS it was over 100 µM. For the same compound, the total growth inhibition concentration (TGI) with HCT-15 colon is 32.9 µM; in the test on MDA-MB-435, 33.3 µM; with TK-10 renal it was over 100 µM; in the test with OVCAR-3 ovarian, 68 µM.

Take `CC12CCC(C(=Nc3cc(C(F)(F)F)cc(C(F)(F)F)c3)C1=O)C2(C)C` (stereo not given): the TGI in the test on NCI-H460 lung was over 100 µM; in the test with NCI-H23 lung, over 100 µM; with UO-31 renal it was over 100 µM; with PC-3 prostate, over 100 µM; in the test on HL-60(TB) leukemia, 23.8 µM; with SNB-19 CNS it was over 100 µM. In addition, the TGI with HCT-15 colon, in the test on MDA-MB-435, in the test with TK-10 renal and with OVCAR-3 ovarian was over 100 µM throughout.

For the compound `CN(C)CC1CCC/C(=C\c2ccc(OC(=O)/C=C/c3ccc(Cl)c(Cl)c3)cc2)C1=O` (stereo not given), the TGI in the test with NCI-H460 lung is 23.2 µM; in the test with NCI-H23 lung, 14.4 µM; in the test with UO-31 renal it was 13.9 µM; in the test with PC-3 prostate it was 13.2 µM; in the test on HL-60(TB) leukemia, 3.45 µM; in the test with SNB-19 CNS it was 18.6 µM. Also, the TGI is 6.84 µM with HCT-15 colon, over 60.1 µM in the test on MDA-MB-435, 5.96 µM in the test on TK-10 renal and 14.6 µM in the test on OVCAR-3 ovarian.

Consider `O=C1CS(=O)(=O)C(c2cccc(Oc3ccccc3)c2)N1c1ccccc1` (stereo not given), for which the TGI with NCI-H460 lung is 38.4 µM; with NCI-H23 lung, 94.6 µM; in the test on UO-31 renal it was 80.4 µM; in the test on PC-3 prostate, 66.8 µM; in the test with HL-60(TB) leukemia, over 100 µM; with SNB-19 CNS, over 100 µM. Also, the TGI with HCT-15 colon came to 66 µM; in the test on MDA-MB-435 it was 68.2 µM; with TK-10 renal, 60 µM; in the test with OVCAR-3 ovarian it was 55.1 µM.

Consider `COC(=O)NC(Cc1ccccc1)NC(C)=O` (stereo not given), for which the total growth inhibition concentration (TGI) with NCI-H460 lung, in the test on NCI-H23 lung, with UO-31 renal, in the test with PC-3 prostate, in the test with HL-60(TB) leukemia and in the test with SNB-19 CNS was over 100 µM throughout. The TGI with HCT-15 colon, with MDA-MB-435, in the test on TK-10 renal and in the test with OVCAR-3 ovarian was over 100 µM in each case.

In the case of `CCOC(=O)C(=O)CC(=O)C1=C(c2ccccc2OC)CC(c2cccs2)=CC1=O`, the TGI with NCI-H460 lung, in the test with NCI-H23 lung, in the test on UO-31 renal, in the test with PC-3 prostate, in the test with HL-60(TB) leukemia and in the test on SNB-19 CNS was over 100 µM in each case. Besides, the TGI in the test with HCT-15 colon, with MDA-MB-435, in the test on TK-10 renal and with OVCAR-3 ovarian was over 100 µM in each case.

With `Cc1cc(O)cc(O)c1C(=O)O[C@]1(C)C(=O)C=C2C=C(/C=C/C(=O)O)OC=C2C1=O`, the TGI in the test on NCI-H460 lung is over 100 µM; in the test with NCI-H23 lung it was over 100 µM; in the test on UO-31 renal, over 100 µM; in the test on PC-3 prostate it was over 100 µM; with HL-60(TB) leukemia it was 75.1 µM; in the test on SNB-19 CNS it was over 100 µM. In addition, the TGI with HCT-15 colon, in the test with MDA-MB-435, in the test with TK-10 renal and in the test with OVCAR-3 ovarian was over 100 µM in each case.

Turning to `N#CC[N+]1(Cc2ccccn2)CCCC1`, the TGI with NCI-H460 lung, in the test with NCI-H23 lung, in the test with UO-31 renal, with PC-3 prostate, in the test with HL-60(TB) leukemia and with SNB-19 CNS was over 100 µM in each case. The TGI in the test on HCT-15 colon, in the test on MDA-MB-435, with TK-10 renal and in the test with OVCAR-3 ovarian was over 100 µM throughout.

For the compound `O=[N+]([O-])c1cccc(Cl)c1Oc1ccc(S(=O)(=O)/N=C(\NO)Nc2ccc(Cl)cc2)cc1`, the TGI in the test on NCI-H460 lung amounted to 29.3 µM; with NCI-H23 lung, 33.9 µM; with UO-31 renal, 23.7 µM; in the test on PC-3 prostate, 24.2 µM; in the test on HL-60(TB) leukemia it was 16.5 µM; in the test on SNB-19 CNS, 30.7 µM. In addition, the TGI is 33.8 µM in the test with HCT-15 colon, 29.2 µM in the test on MDA-MB-435, 30.4 µM in the test on TK-10 renal and 22.6 µM in the test with OVCAR-3 ovarian.

In the case of `O=C(C(Cl)=C(N1CCCCC1)N1CCCCC1)C(Cl)Cl`, the concentration for total growth inhibition (TGI) with NCI-H460 lung, in the test on NCI-H23 lung, in the test with UO-31 renal, in the test with PC-3 prostate, with HL-60(TB) leukemia and in the test with SNB-19 CNS was over 100 µM throughout. The total growth inhibition concentration (TGI) with HCT-15 colon, in the test with MDA-MB-435, with TK-10 renal and with OVCAR-3 ovarian was over 100 µM in each case.
